According to ChEMBL document CHEMBL2074288 (Eur J Pharmacol, 2004):

Tests used:
[1] = target: T1, Organic anion transporter 3 (Homo sapiens, UniProt Q8TCC7); assay: TP_TRANSPORTER: inhibition of E1S uptake in OAT3 expressing oocytes
T1 sequence (Q8TCC7 whole entry): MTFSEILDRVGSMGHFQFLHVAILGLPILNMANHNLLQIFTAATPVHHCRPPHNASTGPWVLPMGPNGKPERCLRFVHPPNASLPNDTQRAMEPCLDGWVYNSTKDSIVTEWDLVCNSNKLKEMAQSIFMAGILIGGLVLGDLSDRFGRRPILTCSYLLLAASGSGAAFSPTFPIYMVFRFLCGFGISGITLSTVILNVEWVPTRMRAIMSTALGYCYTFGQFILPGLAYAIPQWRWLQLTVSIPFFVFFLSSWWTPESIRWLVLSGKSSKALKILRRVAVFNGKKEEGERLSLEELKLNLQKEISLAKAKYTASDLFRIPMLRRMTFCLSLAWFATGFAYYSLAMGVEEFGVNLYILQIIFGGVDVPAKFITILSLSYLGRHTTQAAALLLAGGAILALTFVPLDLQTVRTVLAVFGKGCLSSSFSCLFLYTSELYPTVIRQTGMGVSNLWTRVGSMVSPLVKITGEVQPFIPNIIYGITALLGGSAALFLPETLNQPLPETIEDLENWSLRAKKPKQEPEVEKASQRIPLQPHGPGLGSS

[2] = target: T2, Solute carrier family 22 member 2 (Homo sapiens, UniProt O15244); assay: TP_TRANSPORTER: inhibition of TEA uptake in OCT2 expressing oocytes
T2 sequence (O15244 whole entry): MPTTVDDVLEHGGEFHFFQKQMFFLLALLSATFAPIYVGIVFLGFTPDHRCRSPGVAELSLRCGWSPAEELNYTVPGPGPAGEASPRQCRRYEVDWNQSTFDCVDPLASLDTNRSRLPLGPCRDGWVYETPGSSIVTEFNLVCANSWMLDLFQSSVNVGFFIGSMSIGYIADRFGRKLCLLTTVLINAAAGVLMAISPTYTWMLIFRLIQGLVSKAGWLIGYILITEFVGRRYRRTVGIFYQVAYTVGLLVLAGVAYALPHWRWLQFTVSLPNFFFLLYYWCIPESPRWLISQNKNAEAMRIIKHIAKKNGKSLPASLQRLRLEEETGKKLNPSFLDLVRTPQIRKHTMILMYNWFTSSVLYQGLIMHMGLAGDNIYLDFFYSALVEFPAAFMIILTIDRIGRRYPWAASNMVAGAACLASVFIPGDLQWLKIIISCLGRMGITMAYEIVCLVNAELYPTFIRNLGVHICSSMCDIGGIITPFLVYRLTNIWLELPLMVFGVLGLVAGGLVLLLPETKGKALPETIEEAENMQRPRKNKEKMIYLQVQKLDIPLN

Compound	Ki [1] [µM]	Ki [2] [µM]
CN/C(=N/CCSCc1nc[nH]c1C)NC#N [CIMETIDINE]	53	57
NC(N)=Nc1nc(CSCCC(N)=NS(N)(=O)=O)cs1 [FAMOTIDINE]	300	1800
